Measurements from the NIST ThermoML archive (doi:10.1016/j.fluid.2010.08.022).

Settings: 101.33 kPa; for speed of sound: Sing-around technique in a fixed-path interferometer; for mass density: Vibrating tube method

CCCCCCCC/C=C\CCCCCCCC(=O)O.NCCO [2-hydroxyethylammonium oleate]
Settings | mass density [kg/m3] | speed of sound [m/s]
278.16 K, Crystal | 955.929 | 1635.4
278.41 K, Crystal | 955.757 | 1634.1
278.66 K, Crystal | 955.58 | 1632.7
278.9 K, Crystal | 955.409 | 1631.4
279.16 K, Crystal | 955.234 | 1630
279.41 K, Crystal | 955.057 | 1628.7
279.65 K, Crystal | 954.881 | 1627.4
279.91 K, Crystal | 954.704 | 1626.1
280.16 K, Crystal | 954.527 | 1624.7
280.41 K, Crystal | 954.349 | 1623.4
280.65 K, Crystal | 954.172 | 1622.1
280.91 K, Crystal | 953.991 | 1620.8
281.15 K, Crystal | 953.811 | 1619.5
281.41 K, Crystal | 953.63 | 1618.2
281.66 K, Crystal | 953.448 | 1616.8
281.91 K, Crystal | 953.266 | 1615.5
282.16 K, Crystal | 953.081 | 1614.2
282.41 K, Crystal | 952.898 | 1612.9
282.66 K, Crystal | 952.714 | 1611.6
282.91 K, Crystal | 952.526 | 1610.3
283.16 K, Crystal | 952.337 | 1608.9
283.41 K, Crystal | 952.15 | 1607.6
283.66 K, Crystal | 951.962 | 1606.3
283.91 K, Crystal | 951.769 | 1605
284.16 K, Crystal | 951.578 | 1603.6
284.41 K, Crystal | 951.383 | 1602.3
284.66 K, Crystal | 951.188 | 1600.8
284.91 K, Crystal | 950.989 | 1599.3
285.15 K, Crystal | 950.796 | 1597.7
285.4 K, Crystal | 950.604 | 1595.8
285.65 K, Crystal | 950.404 | 1592.8
285.9 K, Crystal | 950.405 | 1593.2
286.15 K, Liquid crystal of unknown type | 944.693 | 1554.4
286.4 K, Liquid crystal of unknown type | 944.221 | 1552.7
286.65 K, Liquid crystal of unknown type | 944.256 | 1553.3
286.9 K, Liquid crystal of unknown type | 943.886 | 1551.5
287.15 K, Liquid crystal of unknown type | 943.629 | 1550.2
287.4 K, Liquid crystal of unknown type | 943.416 | 1548.9
287.65 K, Liquid crystal of unknown type | 943.228 | 1547.7
287.9 K, Liquid crystal of unknown type | 943.055 | 1546.7
288.15 K, Liquid crystal of unknown type | 942.888 | 1545.7
288.4 K, Liquid crystal of unknown type | 942.726 | 1544.7
288.65 K, Liquid crystal of unknown type | 942.565 | 1543.7
288.9 K, Liquid crystal of unknown type | 942.405 | 1542.7
289.15 K, Liquid crystal of unknown type | 942.244 | 1541.8
289.4 K, Liquid crystal of unknown type | 942.083 | 1540.8
289.65 K, Liquid crystal of unknown type | 941.923 | 1539.9
289.9 K, Liquid crystal of unknown type | 941.764 | 1539
290.15 K, Liquid crystal of unknown type | 941.604 | 1538.1
290.4 K, Liquid crystal of unknown type | 941.445 | 1537.2
290.66 K, Liquid crystal of unknown type | 941.282 | 1536.2
290.9 K, Liquid crystal of unknown type | 941.124 | 1535.3
291.15 K, Liquid crystal of unknown type | 940.965 | 1534.4
291.4 K, Liquid crystal of unknown type | 940.805 | 1533.5
291.65 K, Liquid crystal of unknown type | 940.646 | 1532.6
291.91 K, Liquid crystal of unknown type | 940.485 | 1531.7
292.15 K, Liquid crystal of unknown type | 940.327 | 1530.8
292.41 K, Liquid crystal of unknown type | 940.167 | 1530
292.65 K, Liquid crystal of unknown type | 940.008 | 1529.1
292.9 K, Liquid crystal of unknown type | 939.848 | 1528.2
293.16 K, Liquid crystal of unknown type | 939.688 | 1527.3
293.4 K, Liquid crystal of unknown type | 939.529 | 1526.4
293.66 K, Liquid crystal of unknown type | 939.369 | 1525.5
293.9 K, Liquid crystal of unknown type | 939.211 | 1524.6
294.16 K, Liquid crystal of unknown type | 939.05 | 1523.7
294.41 K, Liquid crystal of unknown type | 938.892 | 1522.9
294.66 K, Liquid crystal of unknown type | 938.731 | 1522
294.91 K, Liquid crystal of unknown type | 938.572 | 1521.1
295.16 K, Liquid crystal of unknown type | 938.414 | 1520.2
295.41 K, Liquid crystal of unknown type | 938.256 | 1519.4
295.66 K, Liquid crystal of unknown type | 938.095 | 1518.5
295.91 K, Liquid crystal of unknown type | 937.936 | 1517.6
296.16 K, Liquid crystal of unknown type | 937.777 | 1516.8
296.41 K, Liquid crystal of unknown type | 937.618 | 1515.9
296.66 K, Liquid crystal of unknown type | 937.459 | 1515
296.91 K, Liquid crystal of unknown type | 937.301 | 1514.2
297.16 K, Liquid crystal of unknown type | 937.14 | 1513.3
297.41 K, Liquid crystal of unknown type | 936.981 | 1512.5
297.66 K, Liquid crystal of unknown type | 936.822 | 1511.6
297.91 K, Liquid crystal of unknown type | 936.662 | 1510.8
298.15 K, Liquid crystal of unknown type | 936.505 | 1509.9
298.41 K, Liquid crystal of unknown type | 936.345 | 1509
298.66 K, Liquid crystal of unknown type | 936.186 | 1508.2
298.91 K, Liquid crystal of unknown type | 936.026 | 1507.3
299.15 K, Liquid crystal of unknown type | 935.868 | 1506.5
299.41 K, Liquid crystal of unknown type | 935.709 | 1505.6
299.66 K, Liquid crystal of unknown type | 935.55 | 1504.8
299.91 K, Liquid crystal of unknown type | 935.39 | 1503.9
300.16 K, Liquid crystal of unknown type | 935.231 | 1503
300.41 K, Liquid crystal of unknown type | 935.072 | 1502.2
300.66 K, Liquid crystal of unknown type | 934.914 | 1501.3
300.9 K, Liquid crystal of unknown type | 934.755 | 1500.5
301.16 K, Liquid crystal of unknown type | 934.596 | 1499.7
301.41 K, Liquid crystal of unknown type | 934.436 | 1498.8
301.66 K, Liquid crystal of unknown type | 934.277 | 1498
301.91 K, Liquid crystal of unknown type | 934.118 | 1497.1
302.16 K, Liquid crystal of unknown type | 933.959 | 1496.3
302.41 K, Liquid crystal of unknown type | 933.802 | 1495.5
302.66 K, Liquid crystal of unknown type | 933.642 | 1494.6
302.91 K, Liquid crystal of unknown type | 933.483 | 1493.8
303.16 K, Liquid crystal of unknown type | 933.324 | 1492.9
303.4 K, Liquid crystal of unknown type | 933.167 | 1492.1
303.66 K, Liquid crystal of unknown type | 933.005 | 1491.3
303.91 K, Liquid crystal of unknown type | 932.846 | 1490.4
304.16 K, Liquid crystal of unknown type | 932.688 | 1489.6
304.41 K, Liquid crystal of unknown type | 932.529 | 1488.8
304.66 K, Liquid crystal of unknown type | 932.371 | 1488
304.91 K, Liquid crystal of unknown type | 932.212 | 1487.1
305.16 K, Liquid crystal of unknown type | 932.053 | 1486.3
305.41 K, Liquid crystal of unknown type | 931.892 | 1485.5
305.66 K, Liquid crystal of unknown type | 931.734 | 1484.7
305.9 K, Liquid crystal of unknown type | 931.576 | 1483.8
306.16 K, Liquid crystal of unknown type | 931.416 | 1483
306.4 K, Liquid crystal of unknown type | 931.258 | 1482.2
306.66 K, Liquid crystal of unknown type | 931.098 | 1481.4
306.91 K, Liquid crystal of unknown type | 930.939 | 1480.5
307.16 K, Liquid crystal of unknown type | 930.781 | 1479.7
307.41 K, Liquid crystal of unknown type | 930.622 | 1478.9
307.66 K, Liquid crystal of unknown type | 930.464 | 1478.1
307.91 K, Liquid crystal of unknown type | 930.304 | 1477.3
308.16 K, Liquid crystal of unknown type | 930.145 | 1476.4
308.41 K, Liquid crystal of unknown type | 929.987 | 1475.6
308.65 K, Liquid crystal of unknown type | 929.828 | 1474.8
308.91 K, Liquid crystal of unknown type | 929.668 | 1474
309.16 K, Liquid crystal of unknown type | 929.509 | 1473.2
309.4 K, Liquid crystal of unknown type | 929.35 | 1472.3
309.66 K, Liquid crystal of unknown type | 929.189 | 1471.5
309.91 K, Liquid crystal of unknown type | 929.032 | 1470.7
310.16 K, Liquid crystal of unknown type | 928.874 | 1469.9
310.41 K, Liquid crystal of unknown type | 928.713 | 1469
310.66 K, Liquid crystal of unknown type | 928.554 | 1468.2
310.91 K, Liquid crystal of unknown type | – | 1467.4
